We go through eight molecules from patent publication US7855228B2, “Antibiotics targeting MreB” (The Board of Trustees of the Leland Stamford Junior …, priority 2005, dated 2010).

The subject of one experiment is Caulobacter. Description: Caulobacter morphology (DIC images). The following applies: drugs that affect eukaryotic actin. Format: cell-based, Caulobacter crescentus. The source says: Consistent with previous observations in E. coli (Iwai et al., 2002), A22 caused a dose-dependent alteration of Caulobacter morphology, transforming normal, crescent-shaped cells into rounded, lemon-shaped cells. The progression of cell shape deformation by A22 treatment was qualitatively similar to that caused by mreB depletion, though the A22 effect was more rapid (FIGS. […]). […] For example, A22 could disrupt the localization of new cell wall synthesis but have no effect on the existing cell wall, such that without additional growth and wall synthesis A22's effects cannot be perceived. A dependence on cell growth could also explain why A22's effect on morphology takes several hours to manifest.
Microscopy and Timelapse Imaging. All experiments other than the A22 flow-cell analysis were performed by mounting the samples on 1% agarose pads as described, with the appropriate concentration of A22 added to the agarose. The rates of origin-distal locus segregation were determined by inducing PxyI:lacI:cfp expression with 0.03% xylose for 75 min, isolating swarmer cells, and growing the swarmer cells in M2G liquid medium for 50 min. After 50 min, 10 μg/ml of A22 was added to these liquid cultures, they were mounted onto 1% M2G agarose pads containing 10 μg/ml A22, and a phase and CFP fluorescence image was captured every 2 min for 60 min. The images were analyzed by previously described software to determine the average position and rate of movement of the observed foci.

In the next experiment the test system is HoIB-GFP. Description: HoIB-GFP (replisome) localization. Format: cell-based, Caulobacter crescentus. The following applies: 1 hr treatment. As for the experimental part: To assess the ability of these cells to assemble a replisome at the replication origins, A22 was administered to cells expressing a fusion of GFP to the HoIB subunit of DNA polymerase.

Experiment [1] deals with Caulobacter DNA replication. Description: Analysis of DNA replication (32P-labeled dGTP incorporation, DNA-content FACS). Format: cell-based, Caulobacter crescentus. The following applies: 10 μg/ml A22 or 5 mg/ml HU. An excerpt:
We first examined the incorporation of radiolabeled dGTP into DNA, which linearly correlates with the rate of DNA replication. […] To assess the effect of A22 on DNA replication during the cell cycle, the radiolabeled nucleotide incorporation assay was repeated using synchronized cultures at different points in the cell cycle. Untreated cells display a dramatic rise in radioactivity levels characteristic of DNA replication initiation at the swarmer-to-stalked cell transition. This rise in radioactivity levels was also observed in A22-treated cells (FIG. 6A).
Finally, we examined the DNA content of A22-treated cells by FACS.
Analysis of DNA Replication. DNA replication was assessed by incorporation of 32P-labeled dGTP) or chromomycin-stained DNA-content FACS analysis as described previously.

Experiment [2] relates to E. coli K-12 strain SH3210. Description: Anucleate cell blue assay. In kind it is cell-based. As for the experimental part: Anucleate cell blue assay. The anucleate cell blue assay was carried out as reported previously. Briefly, E. coli K-12 strain SH3210 (ΔtrpE5 his λ pXX747) was grown in a P medium containing 1% Polypepton and 0.5% NaCl (pH 7). Paper disks (φ 8 mm) each soaked with 20 μl of a sample solution were placed on P medium agar plates (1.5% agar) containing 10^4 cells/ml of SH3210 and 40 μg/ml of 5-bromo-4-chloro-3-indolyl β-D-galactoside. The plates were incubated at 42° C. for 24 h, and the development of a blue color and the growth inhibitory zone around the paper disks were evaluated.
Since 1 had originally been found through screening by an anucleate cell blue assay, the effect of each compound was first examined by this assay.

In experiment [3] the test system is E. coli MG1655. Description: Microscopic observation of cell shape. In kind it is cell-based. The protocol:
Microscopic observation. E. coli K-12 strain MG1655 (F^− λ^−) was grown in Lennox broth containing 1% Polypepton, 0.5% yeast extract, 0.5% NaCl, and 0.1% glucose (pH 7.2). Cells spread on a slide glass were treated with methanol for 5 min and covered with poly-L-lysine. The fixed cells were observed by the differential interference contrast system through an Axioskop 2 microscope (Carl Zeiss Co., Ltd., Oberkochen, Germany). To observe the anucleate cells, cells were stained with a 4′,6-diamidino-2-phenylindole (DAPI) solution (5 μg/ml in saline) and then observed by the fluorescence phase-contrast combined method.
The effect of each compound on E. coli cell morphology was next examined.

Experiment [4] deals with E. coli MG1655. Description: Determination of minimum inhibitory concentration (MIC). In kind it is cell-based. The following applies: Escherichia coli, read-out: MIC E. coli. As for the experimental part:
(§1) Determination of minimum inhibitory concentration (MIC). MICs were also determined on Mueller Hinton agar plates (0.2% beef extract, 1.75% acid digest of casein, 0.15% soluble starch, 1.5% agar, pH 7.3).
(§2) Determination of MIC Minimal inhibitory concentrations (MICs) were determined using a standard 2-fold serial dilution format on L agar plates. Ten microliters of stationary culture diluted in 0.85% NaCl to 10^6 cells/ml were spotted on per plate. […] MICs were also determined on Mueller Hinton agar plates (0.2% beef extract, 1.75% acid digest of casein, 0.15% soluble starch, 1.5% agar, pH 7.3).

The test system of the next experiment is P. putida NBRC14164. Described as above. The following applies: Pseudomonas putida, read-out: MIC P. putida. In kind it is cell-based, Pseudomonas putida. As for the experimental part: as §1, §2
The test system of another experiment is B. subtilis 168. The experiment is described as above. Format: cell-based, Bacillus subtilis. The following applies: read-out: MIC B. subtilis. The protocol:
as §1, §2

The test system of another experiment is S. typhimurium NBRC13245. The description is as above. Particulars: Salmonella enterica, read-out: MIC S. typhimurium. In kind it is cell-based, Salmonella typhimurium. The protocol: as §1, §2
Experiment [5] concerns S. aureus subsp. aureus NBRC15035. The experiment is described as above. Format: cell-based, Staphylococcus aureus. Particulars: Staphylococcus aureus, read-out: MIC S. aureus. As for the experimental part: as §1, §2
Experiment [6] concerns E. coli K-12 strains (ponB, mreB alleles). Description: MICs of mecillinam and A22 for E. coli K-12 strains. Particulars: Escherichia coli. Format: cell-based. As for the experimental part:
as §2

In another experiment the test system is E. coli JA221, JST975. Description: Cell shapes of A22-resistant mutant JA221 and parent JST975. Format: cell-based. The following applies: mecillinam treatment (1 μg/ml, 2 h, 37° C.). The protocol: FIG. 9. Effects of A22 and mecillinam on cell shapes of the A22-resistant mutant JA221. Exponentially growing cells of the A22-resistant mutant strain JA221 and the parent strain JST975 were treated with 1 μg/ml mecillinam or 10 μg/ml A22 for 2 h at 37° C. Differential interference contrast microphotographs are shown.
After prolonged (9 days) incubation of the JST975 assay plates, several isolated colonies that grew up within the clear growth inhibitory zones were purified on L plates and their A22-sensitivity was examined.

The mark [7] stands for this setting: Example 2, methods as in Example 1.
Where [8] appears, read: MG1655, Example 2, methods as in Example 1.
The mark [9] stands for this setting: NBRC14164, Example 2, methods as in Example 1.
Where [10] appears, read: Bacillus subtilis, 168, Example 2, methods as in Example 1.
[11] abbreviates: NBRC15035, Example 2, methods as in Example 1.

Converted amounts (≈) assume the structure as drawn. Where two headings read alike, the source gives them in different places. *1 amine or outer side, *2 acyl side, *3 side chain or, on linkers, in order; H or OH if unused. Where a SMILES comes first, the peptide text is derived from it. Bridges are numbered along the chain shown (N, C = ends). [ ]: non-standard residue; d: D form. Trp(2-yl) = O=C([C@H](Cc1c([*:3])[nH]c2ccccc12)N[*:1])[*:2]; Leu(4R-OH,5-OH) = C[C@](O)(CO)C[C@H](N)C(=O)O; cisHyp = O=C(O)[C@@H]1C[C@H](O)CN1

Consider `C=C1[C@@H](C)[C@H]2[C@H](Cc3ccccc3)NC(=O)[C@]23[C@H](OC(C)=O)/C=C/[C@@](C)(O)C(=O)[C@@H](C)C/C=C/[C@H]3[C@@H]1O` [cytochalasin D], for which the “Caulobacter growth rate or morphology” value with Caulobacter was “failed to perturb growth rate or morphology”.
For the molecule `NC(=O)NO` [HU, hydroxyl-urea, reference compound], the HoIB-GFP localization entry with HoIB-GFP is on record as “rapid delocalization of HoIB-GFP”. Further, the “Incorporation of radiolabeled dGTP, synchronized cultures (replication initiation)” value in experiment [1] is listed as “no such increase in radioactivity levels”.
Turning to `CO[C@@H]1[C@@H](OC(N)=O)[C@@H](O)[C@H](Oc2ccc3c(O)c(NC(=O)c4ccc(O)c(CC=C(C)C)c4)c(=O)oc3c2C)OC1(C)C` [novobiocin], in the experiment with HoIB-GFP, the HoIB-GFP localization entry is reported as “rapid delocalization of HoIB-GFP”.
Regarding latrunculin, in the experiment with Caulobacter, the “Caulobacter growth rate or morphology” value is on record as “failed to perturb growth rate or morphology”.
`C/C1=C\[C@H](C)C[C@H](C)OC(=O)C[C@H](c2ccc(O)cc2)NC(=O)[C@@H](Cc2c(Br)[nH]c3ccccc23)N(C)C(=O)[C@H](C)NC(=O)[C@@H](C)C1` [jasplakinolide]: in the experiment on Caulobacter, the “Caulobacter growth rate or morphology” value is “failed to perturb growth rate or morphology”.
As to `S=C=NCc1ccccc1` [Compound 8, benzylisothiocyanate, reference compound], the “Growth inhibitory zone and blue zone in the anucleate cell blue assay (in words)” value in [2] is listed as “a growth inhibitory zone, but no blue zone developed”. Further, the Shape result in the experiment with E. coli MG1655 [3] (E. coli MG1655 treated at 300 μg/ml (**), 30° C., 16 h) is “Rod**”; in the experiment on E. coli MG1655 [3] (setting [7]), “Rod”. Further, the MIC is 50 µg/mL (≈ 335 µM) with E. coli MG1655 [4] (setting [8]); 50 µg/mL (≈ 335 µM) in the experiment on E. coli MG1655 [4] (MG1655, Table 1, E. coli MG1655); above 100 µg/mL in the experiment with P. putida NBRC14164 (setting [9]); above 100 µg/mL in the experiment with P. putida NBRC14164 (NBRC14164, Table 1, NBRC14164); 25 µg/mL (≈ 168 µM) in the experiment on B. subtilis 168 (setting [10]); 25 µg/mL (≈ 168 µM) with B. subtilis 168 (Bacillus subtilis, 168, Table 1, B. subtilis 168). Besides, the MIC was 100 µg/mL (≈ 670 µM) in the experiment on S. typhimurium NBRC13245 (setting [7]); 100 µg/mL (≈ 670 µM) in the experiment with S. typhimurium NBRC13245 (Table 1, NBRC13245); 12.5 µg/mL (≈ 83.8 µM) in experiment [5] (setting [11]); 12.5 µg/mL (≈ 83.8 µM) in experiment [5] (NBRC15035, Table 1, NBRC15035).
Regarding `CC1(C)S[C@@H]2[C@H](/N=C/N3CCCCCC3)C(=O)N2[C@H]1C(=O)O` [mecillinam, reference compound], in the experiment on E. coli MG1655 [3] (setting [7]), the Shape entry is on record as “Sphere”. For the same molecule, the MIC with E. coli MG1655 [4] (setting [8]) amounted to 0.0977 µg/mL (≈ 0.3 µM); in [6] (read-out: MICs, strain JA221 (ponB −, mreB221)) it was 0.125 µg/mL (≈ 0.384 µM); in experiment [6] (read-out: MICs, strain JE1011 (ponB +, mreB +)), 0.25 µg/mL (≈ 0.768 µM); in experiment [6] (read-out: MICs, strain JM109/pMW218 (ponB +, mreB +/−)), 0.125 µg/mL (≈ 0.384 µM); in [6] (read-out: MICs, strain JM109/pMreB1 (ponB +, mreB +/+)), 0.125 µg/mL (≈ 0.384 µM); in [6] (read-out: MICs, strain JM109/pMreB221 (ponB +, mreB +/mreB221)) it was 0.125 µg/mL (≈ 0.384 µM). Besides, the MIC is 0.125 µg/mL (≈ 0.384 µM) in experiment [6] (read-out: MICs, strain JST975 (ponB −, mreB +)); 0.125 µg/mL (≈ 0.384 µM) in experiment [6] (read-out: MICs, strain JSTA220 (ponB −, mreB +)); 0.125 µg/mL (≈ 0.384 µM) in experiment [6] (read-out: MICs, strain JSTA221 (ponB −, mreB221)); 0.25 µg/mL (≈ 0.768 µM) in experiment [6] (read-out: MICs, strain WA220 (ponB +, mreB +)); 0.25 µg/mL (≈ 0.768 µM) in experiment [6] (read-out: MICs, strain WA221 (ponB +, mreB221)); above 100 µg/mL in the experiment with P. putida NBRC14164 (setting [9]). The MIC in the experiment on B. subtilis 168 (setting [10]) was 12.5 µg/mL (≈ 38.4 µM); with S. typhimurium NBRC13245 (setting [7]), 0.0977 µg/mL (≈ 0.3 µM); in [5] (setting [11]), 50 µg/mL (≈ 154 µM). Also, the “Cell shape of resistant mutant JA221” value with E. coli JA221, JST975 is “formed spherical cells”.
Regarding `C[C@@H]1NC(=O)[C@H](C[C@@](C)(O)CO)NC(=O)[C@@H]2Cc3c([nH]c4ccccc34)SC[C@H](NC(=O)[C@@H]([C@H](C)O)NC1=O)C(=O)N1C[C@@H](O)C[C@H]1C(=O)N[C@@H](C)C(=O)N2` [phalloidin] (cyclo(A[dT]C[cisHyp]A[Trp(2-yl)][Leu(4R-OH,5-OH)]); thioether 3-6), the “Caulobacter growth rate or morphology” value in the experiment on Caulobacter is given as “failed to perturb growth rate or morphology”.
